Measured values taken from patent US7153869B2, “Substituted amino acids as erythropoietin mimetics” (priority 1998, dated 2006).
Read-outs that look alike come from different tables or passages of the source.

Biological target: T1, EBP-Ig (N-terminal 225 amino acids of the human EPO receptor joined to an Ig heavy chain) (Homo sapiens, UniProt P19235)
T1 construct: Ig heavy chain (fusion partner); made in house; host or cells: NSO cells (secreted into conditioned media)
T1 sequence (P19235 25-250 limits assumed): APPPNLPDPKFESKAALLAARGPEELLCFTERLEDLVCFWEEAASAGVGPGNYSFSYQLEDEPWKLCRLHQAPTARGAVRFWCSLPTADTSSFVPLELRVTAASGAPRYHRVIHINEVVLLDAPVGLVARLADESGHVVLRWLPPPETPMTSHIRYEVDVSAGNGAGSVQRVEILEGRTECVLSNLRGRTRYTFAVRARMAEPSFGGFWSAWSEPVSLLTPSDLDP
Test: Inhibition of [125I]EPO binding to immobilized EBP-Ig (EPO binding protein-Ig), scintillation Flash plate competition assay
Conditions: for % inh @ 50 μM (Inhibition of EPO binding to EBP-Ig): 50 μM test compound, average % inhibition; for IC30 μM (Inhibition of EPO binding to EBP-Ig): 0–500 μM test compound
Description: The interaction of biotin and streptavidin is frequently employed to capture and effectively immobilize reagents useful in assay protocols and has been employed here as a simple method to capture and immobilize EBP-Ig. EBP-Ig is initially randomly modified with an amine reactive derivative of biotin to produce biotinylated-EBP-Ig. Use of streptavidin coated plates allows the capture of the biotinylated EBP-Ig on the surface of a scintillant impregnated coated well (Flash plates, NEN-DuPont). […] The amount of light produced was quantified to estimate the amount of ligand binding. The specific assay format was suitable for the multi-well plate capacity of a Packard TopCount Microplate Scintillation counter.
Biotinylated EBP-Ig was prepared as follows. EBP-Ig (3 mL, OD280 2.9) was exchanged into 50 mM sodium bicarbonate, pH 8.5 using a Centriprep 10 ultrafiltration device. The final volume of the exchanged protein was 1.2 mL (OD280 2.6, representing about 2 mg total protein). 10 μL of a 4 mg/ml solution of NHS-LC-Biotin (Pierce) was added and the reaction mixture placed on ice in the dark for two hours. Unreacted biotin was removed by exchange of the reaction buffer into PBS in a Centriprep 10 device and the protein reagent aliquoted and stored at −70° C.
All wells were adjusted to a final DMSO concentration of 5%. […] After all additions were made, the plate was covered with an adhesive top seal and placed in the dark at room temperature overnight. The next day all liquid was aspirated from the wells to limit analyte dependent quench of the signal, and the plates were counted on a Packard TOPCOUNT Microplate Scintillation Counter. […] Corrected total binding (CTB) was calculated as: TB−NSB=CTB. […] Table 1 lists the average % inhibition, and if determined the IC50 and IC30 values for compounds of Formula I, where the compound numbers refer to the compounds in the tables accompanying the preparative examples.

Structure (SMILES)	EPO/EBP-Ig % inh @ 50 μM (Table 5, 50 μM) [%]	EPO/EBP-Ig % inh @ 50 μM (Table 6, 50 μM) [%]	also measured
O=C(O)CCC(C(=O)O)N(C/C=C/c1ccc(NC(=O)C(F)(F)F)cc1)Cc1ccc(OCc2ccccc2)cc1 (centres unmarked) [compound 85]	20	–	–
O=C(O)CCC(C(=O)O)N(C/C=C/c1ccc(NC(=O)c2ccncc2)cc1)Cc1ccc(OCc2ccccc2)cc1 (centres unmarked) [compound 86]	37	–	% inh @ 50 μM (Inhibition of EPO binding to EBP-Ig) (0.5 nM [125I]EPO): 37%
Cc1ccc(S(=O)(=O)Nc2ccc(/C=C/CN(Cc3ccc(OCc4ccccc4)cc3)C(CCC(=O)O)C(=O)O)cc2)cc1 (centres unmarked) [compound 87]	23	–	–
O=C(O)CCC(C(=O)O)N(C/C=C/c1ccc(NC(=O)CC2(CC(=O)O)CCCC2)cc1)Cc1ccc(OCc2ccccc2)cc1 (centres unmarked) [compound 88]	10.3	–	–
O=C(O)CCC(C(=O)O)N(C/C=C/c1ccc(NC(=O)Oc2ccccc2)cc1)Cc1ccc(OCc2ccccc2)cc1 (centres unmarked) [compound 89]	22	–	–
O=C(O)CCC(C(=O)O)N(C/C=C/c1ccc(NC(=O)c2ccc(-c3ccccc3)cc2)cc1)Cc1ccc(OCc2ccccc2)cc1 (centres unmarked) [compound 90]	29	–	–
O=C(O)CCC(C(=O)O)N(C/C=C/c1ccc(NC(=O)c2ccc([N+](=O)[O-])cc2)cc1)Cc1ccc(OCc2ccccc2)cc1 (centres unmarked) [compound 91]	19	–	–
COC(=O)C(CCC(=O)O)N(C/C=C/c1ccccc1)C/C=C/c1ccccc1 (centres unmarked) [compound 92]	–	20	–
COC(=O)C(CCC(=O)OC(C)(C)C)N(C/C=C/c1ccccc1)C/C=C/c1ccccc1 (centres unmarked) [compound 93]	–	20	–
CCOC(=O)CCC(C(=O)OC)N(C/C=C/c1ccccc1)C/C=C/c1ccccc1 (centres unmarked) [compound 94]	–	25	–
COC(=O)C(CCC(=O)OC(C)(C)C)N(C/C=C/c1cccc2ccccc12)C/C=C/c1cccc2ccccc12 (centres unmarked) [compound 95]	–	15	–
CC(C)(C)OC(=O)CCC(C(=O)O)N(C/C=C/c1ccc2ccccc2c1)C/C=C/c1ccc2ccccc2c1 (centres unmarked) [compound 97]	–	14	–
COC(=O)C(CCC(=O)OC(C)(C)C)N(C/C=C/c1cccc(Oc2ccc(Cl)c(Cl)c2)c1)C/C=C/c1cccc(Oc2ccc(Cl)c(Cl)c2)c1 (centres unmarked) [compound 99]	–	13	–
COC(=O)C(CCC(=O)O)N(C/C=C/c1cccc(Oc2ccc(Cl)c(Cl)c2)c1)C/C=C/c1cccc(Oc2ccc(Cl)c(Cl)c2)c1 (centres unmarked) [compound 101]	–	32	% inh @ 50 μM (Inhibition of EPO binding to EBP-Ig) (0.5 nM [125I]EPO): 32%
CC(C)(C)OC(=O)CCC(C(=O)OC(C)(C)C)N(C/C=C/c1cccc(Oc2ccc(C(C)(C)C)cc2)c1)C/C=C/c1cccc(Oc2ccc(C(C)(C)C)cc2)c1 (centres unmarked) [compound 102]	–	5	–
CC(C)(C)OC(=O)CCC(C(=O)OC(C)(C)C)N(C/C=C/c1cccc(Oc2cccc(C(F)(F)F)c2)c1)C/C=C/c1cccc(Oc2cccc(C(F)(F)F)c2)c1 (centres unmarked) [compound 103]	–	17	–
CC(C)(C)c1ccc(Oc2cccc(/C=C/CN(C/C=C/c3cccc(Oc4ccc(C(C)(C)C)cc4)c3)C(CCC(=O)O)C(=O)O)c2)cc1 (centres unmarked) [compound 104]	–	78	IC30 μM (Inhibition of EPO binding to EBP-Ig) (0.5 nM [125I]EPO): 10 µM; % inh @ 50 μM (Inhibition of EPO binding to EBP-Ig) (0.5 nM [125I]EPO): 78%; IC50 (read-out: IC50, μM (Inhibition of EPO binding to EBP-Ig), 0.5 nM [125I]EPO, concentration reducing corrected total binding to 50%): 30 µM
O=C(O)CCC(C(=O)O)N(C/C=C/c1cccc(Oc2cccc(C(F)(F)F)c2)c1)C/C=C/c1cccc(Oc2cccc(C(F)(F)F)c2)c1 (centres unmarked) [compound 105]	–	–	IC50: 35 µM; IC30 μM (Inhibition of EPO binding to EBP-Ig) (0.5 nM [125I]EPO): 25 µM; inhibition at 50 µM (read-out: % inh @ 50 μM (Inhibition of EPO binding to EBP-Ig)): 70%; inhibition at 50 µM (read-out: EPO/EBP-Ig % inh @ 50 μM, Table 6, 50 μM): 70%
